The test system of one experiment is HeLa cells. As to the kind of experiment: Proliferation assay HeLa (crystal violet).
For the next experiment, the system named is NCI-H460 cells. As to the kind of experiment: Proliferation assay NCI-H460 (crystal violet). The note with it: read-out: Inhibition of NCI-H460 cell proliferation, 4 days incubation.
Experiment [1] addresses full-length human ATR protein (Homo sapiens (Human), UniProt Q13535). As to the kind of experiment: Binding assay ATR (TR-FRET tracer displacement). The settings on record: TR-FRET. Put shortly: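 Full-length human GST-ATR co-purified with ATRIP, pre-complexed 30 min at 22 °C with anti-GST-Tb antibody, then pre-bound with compound 10 min. Tracer A or B added (2 µl of 100 nM solution), 30 min at 22 °C.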
On the technique in general: In TR-FRET formats the signal depends on donor and acceptor labels being close together.

The subject of another experiment is B16F10 cells. As to the kind of experiment: Proliferation assay B16F10 (crystal violet). The note with it: read-out: Inhibition of B16F10 cell proliferation, 4 days incubation.
In another experiment the test system is DU145 cells. As to the kind of experiment: Proliferation assay DU145 (crystal violet). The note with it: read-out: Inhibition of DU145 cell proliferation, 4 days incubation.
The next experiment concerns Caco-2 cells. As to the kind of experiment: Proliferation assay Caco-2 (crystal violet). It is filed as cell-based, human. The note with it: 4 days incubation, read-out: Inhibition of Caco-2 cell proliferation.
The mark [2] stands for this setting: tracer A, read-out: ATR binding (tracer A) IC50.
Setting [3] is: tracer B, read-out: ATR binding (tracer B) IC50.

Where two headings read alike, the source gives them in different places.

Chain of full-length human ATR protein (Q13535 other isoform, or with tags, fused parts or gaps): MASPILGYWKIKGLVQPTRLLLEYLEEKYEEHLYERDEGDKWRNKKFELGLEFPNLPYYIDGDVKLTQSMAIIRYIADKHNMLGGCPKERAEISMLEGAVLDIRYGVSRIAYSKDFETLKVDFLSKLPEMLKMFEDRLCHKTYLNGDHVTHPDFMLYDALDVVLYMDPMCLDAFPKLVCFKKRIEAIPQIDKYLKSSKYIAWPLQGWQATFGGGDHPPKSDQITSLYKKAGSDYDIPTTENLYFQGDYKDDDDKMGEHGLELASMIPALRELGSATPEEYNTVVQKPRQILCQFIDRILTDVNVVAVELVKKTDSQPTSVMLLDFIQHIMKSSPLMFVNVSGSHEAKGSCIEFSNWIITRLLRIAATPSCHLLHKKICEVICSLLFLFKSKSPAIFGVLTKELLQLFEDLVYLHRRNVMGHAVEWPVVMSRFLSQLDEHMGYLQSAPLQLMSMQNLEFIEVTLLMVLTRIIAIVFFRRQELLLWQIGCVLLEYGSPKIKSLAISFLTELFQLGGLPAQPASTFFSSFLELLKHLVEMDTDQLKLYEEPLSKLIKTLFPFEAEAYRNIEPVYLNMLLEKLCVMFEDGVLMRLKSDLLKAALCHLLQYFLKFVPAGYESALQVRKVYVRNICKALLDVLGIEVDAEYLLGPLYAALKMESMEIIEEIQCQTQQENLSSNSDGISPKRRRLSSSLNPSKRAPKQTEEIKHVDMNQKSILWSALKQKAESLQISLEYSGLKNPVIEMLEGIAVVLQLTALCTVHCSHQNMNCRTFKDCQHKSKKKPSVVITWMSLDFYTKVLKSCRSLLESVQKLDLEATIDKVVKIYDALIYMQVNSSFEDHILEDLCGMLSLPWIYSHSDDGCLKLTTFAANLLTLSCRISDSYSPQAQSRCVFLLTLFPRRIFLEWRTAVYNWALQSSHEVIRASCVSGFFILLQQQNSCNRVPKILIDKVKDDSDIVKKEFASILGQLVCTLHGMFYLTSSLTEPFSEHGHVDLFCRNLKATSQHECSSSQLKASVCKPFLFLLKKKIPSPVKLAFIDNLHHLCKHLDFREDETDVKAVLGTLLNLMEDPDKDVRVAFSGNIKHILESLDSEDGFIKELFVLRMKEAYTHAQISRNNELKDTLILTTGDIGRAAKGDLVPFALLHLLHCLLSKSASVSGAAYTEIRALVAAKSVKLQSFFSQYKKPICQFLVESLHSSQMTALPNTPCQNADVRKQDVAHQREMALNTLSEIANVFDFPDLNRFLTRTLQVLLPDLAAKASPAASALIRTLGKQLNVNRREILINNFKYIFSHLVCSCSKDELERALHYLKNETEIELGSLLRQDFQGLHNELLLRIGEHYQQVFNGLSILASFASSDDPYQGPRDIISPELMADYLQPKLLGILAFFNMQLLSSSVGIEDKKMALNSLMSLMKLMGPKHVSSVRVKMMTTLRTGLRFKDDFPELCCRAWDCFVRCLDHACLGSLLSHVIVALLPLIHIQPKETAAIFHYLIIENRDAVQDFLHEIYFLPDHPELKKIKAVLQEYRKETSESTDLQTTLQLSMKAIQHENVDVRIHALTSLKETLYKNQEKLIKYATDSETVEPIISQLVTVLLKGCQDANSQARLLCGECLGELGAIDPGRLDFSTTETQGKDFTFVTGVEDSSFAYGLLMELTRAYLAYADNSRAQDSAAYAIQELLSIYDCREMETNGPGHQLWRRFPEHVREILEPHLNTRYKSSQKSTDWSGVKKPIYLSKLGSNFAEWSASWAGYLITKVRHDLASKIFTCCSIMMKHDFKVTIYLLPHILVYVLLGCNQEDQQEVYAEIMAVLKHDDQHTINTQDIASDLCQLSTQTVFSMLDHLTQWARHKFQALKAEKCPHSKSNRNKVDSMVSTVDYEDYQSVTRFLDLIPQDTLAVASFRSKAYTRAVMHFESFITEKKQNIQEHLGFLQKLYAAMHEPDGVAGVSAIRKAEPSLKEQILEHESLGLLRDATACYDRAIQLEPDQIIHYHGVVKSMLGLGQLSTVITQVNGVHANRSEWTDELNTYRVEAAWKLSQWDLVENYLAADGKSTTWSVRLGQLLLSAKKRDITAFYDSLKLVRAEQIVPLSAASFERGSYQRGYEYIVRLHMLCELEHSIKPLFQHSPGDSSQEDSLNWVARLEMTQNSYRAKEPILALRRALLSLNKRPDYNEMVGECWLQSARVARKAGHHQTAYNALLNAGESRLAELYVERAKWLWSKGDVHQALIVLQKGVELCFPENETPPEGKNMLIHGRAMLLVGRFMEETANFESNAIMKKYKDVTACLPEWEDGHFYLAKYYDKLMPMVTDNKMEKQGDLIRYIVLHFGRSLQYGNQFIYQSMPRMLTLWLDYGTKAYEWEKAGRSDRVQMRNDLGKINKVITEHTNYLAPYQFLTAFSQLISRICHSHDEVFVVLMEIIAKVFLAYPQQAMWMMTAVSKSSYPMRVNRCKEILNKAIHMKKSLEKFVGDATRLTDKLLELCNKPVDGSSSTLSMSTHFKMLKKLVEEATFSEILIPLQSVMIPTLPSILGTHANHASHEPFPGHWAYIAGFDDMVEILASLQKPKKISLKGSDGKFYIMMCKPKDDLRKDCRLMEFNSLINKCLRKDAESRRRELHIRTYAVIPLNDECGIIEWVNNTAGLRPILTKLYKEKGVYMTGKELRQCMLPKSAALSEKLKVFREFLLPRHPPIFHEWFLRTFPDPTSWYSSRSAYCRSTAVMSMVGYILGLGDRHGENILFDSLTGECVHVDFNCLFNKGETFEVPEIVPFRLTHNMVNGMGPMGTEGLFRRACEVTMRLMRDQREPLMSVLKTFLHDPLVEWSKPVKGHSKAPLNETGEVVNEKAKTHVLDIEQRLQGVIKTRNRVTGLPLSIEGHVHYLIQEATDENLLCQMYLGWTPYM
Chain of full-length human ATR protein (Q8WXE1 other isoform, or with tags, fused parts or gaps partner): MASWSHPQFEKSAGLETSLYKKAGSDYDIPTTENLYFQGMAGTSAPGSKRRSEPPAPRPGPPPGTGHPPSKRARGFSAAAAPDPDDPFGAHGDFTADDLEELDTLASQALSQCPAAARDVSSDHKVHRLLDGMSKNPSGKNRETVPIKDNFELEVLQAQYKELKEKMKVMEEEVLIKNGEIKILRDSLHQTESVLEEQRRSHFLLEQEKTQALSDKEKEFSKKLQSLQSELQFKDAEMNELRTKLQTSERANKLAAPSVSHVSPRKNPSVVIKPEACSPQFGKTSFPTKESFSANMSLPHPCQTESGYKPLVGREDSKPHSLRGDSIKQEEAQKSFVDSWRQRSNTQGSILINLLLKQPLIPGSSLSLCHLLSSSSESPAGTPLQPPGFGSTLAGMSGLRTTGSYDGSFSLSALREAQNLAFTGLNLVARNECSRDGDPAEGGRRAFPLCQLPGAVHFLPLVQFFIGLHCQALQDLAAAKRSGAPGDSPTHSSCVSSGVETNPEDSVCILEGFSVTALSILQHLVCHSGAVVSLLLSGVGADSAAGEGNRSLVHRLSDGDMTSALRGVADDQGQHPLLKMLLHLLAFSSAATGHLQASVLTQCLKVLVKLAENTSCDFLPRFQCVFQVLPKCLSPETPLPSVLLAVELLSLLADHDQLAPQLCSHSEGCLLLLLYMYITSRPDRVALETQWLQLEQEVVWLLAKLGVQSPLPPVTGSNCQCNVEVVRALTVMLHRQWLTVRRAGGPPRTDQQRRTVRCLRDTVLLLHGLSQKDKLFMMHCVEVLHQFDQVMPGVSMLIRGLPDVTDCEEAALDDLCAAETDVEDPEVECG
Experimental for B16F10 cells: (§1) After 24 hours, the cells of one plate (zero plate) were dyed with crystal violet (see below), whereas the medium of the other plates was replaced with fresh culture medium (200 μl) to which the test substances were added in various concentrations (0 μM, and also in the range of 0.001-10 μM; the final concentration of the solvent dimethyl sulphoxide was 0.1 or 0.5%). The cells were incubated for 4 days in the presence of the test substances. […] After washing the fixed cells three times with water, the plates were dried at room temperature. The cells were stained by adding 100 μl/measurement point of a 0.1% strength crystal violet solution (pH adjusted to pH 3 by adding acetic acid). After washing the cells three times with water, the plates were dried at room temperature. The dye was dissolved by adding 100 μl/measurement point of a 10% strength acetic acid solution. […] The percentage change in cell growth was calculated by normalizing the measured values to the absorbance values of the zero plate (=0%) and the absorbance of the untreated (0 μM) cells (=100%). The IC50 values were determined by means of a four parameter fit.
Experimental for Caco-2 cells: as §1
Experimental for DU145 cells: as §1
Experimental for HeLa cells: as §1
Experimental for NCI-H460 cells: as §1

As for “5-fluoro-2-{2-[(3R)-3-methylmorpholin-4-yl]-8-(1H-pyrazol-5-yl)-1,7-naphthyridin-4-yl}aniline [Example 190]”, in the experiment with HeLa cells (read-out: Inhibition of HeLa cell proliferation, HeLa cells, 4 days incubation, crystal violet), the IC50 came to 334 nM. On to `CS(=O)(=O)c1cc(N2CCOCC2)nc2c(-c3cc[nH]n3)nccc12` [Example 32], for which the figures for the IC50 (with NCI-H460 cells; in experiment [1] (setting [2]); in experiment [1] (setting [3])) were 1950 nM, 84.7 nM and 36.7 nM, respectively.

As to `CC(C)Oc1cc(N2CCOCC2)nc2c(-c3cc[nH]n3)nccc12` [Example 40, 4-isopropoxy-2-(morpholin-4-yl)-8-(1H-pyrazol-3-yl)-[1,7]naphthyridine], the results for the IC50 (in the experiment with B16F10 cells; in experiment [1] (setting [2]); in experiment [1] (setting [3])) were > 3000 nM, 125 nM and 99 nM, respectively. For `CCOP(C)(=O)c1cc(N2CCOC[C@H]2C)nc2c(-c3ccn[nH]3)nccc12` (stereo partly drawn) [Example 125, Ethyl methyl{2-[(3R)-3-methylmorpholin-4-yl]-8-(1H-pyrazol-5-yl)-1,7-naphthyridin-4-yl}phosphinate], the IC50 is 541 nM in the experiment on NCI-H460 cells, 764 nM with DU145 cells, 2630 nM in the experiment on Caco-2 cells and 17.2 nM in experiment [1] (setting [2]). As to `c1cc(-c2nccc3c(N4C[C@@H]5C[C@H]4CO5)cc(N4CCOCC4)nc23)[nH]n1` [Example 185, 2-(morpholin-4-yl)-4-[(1S,4S)-2-oxa-5-azabicyclo[2.2.1]hept-5-yl]-8-(1H-pyrazol-5-yl)-1,7-naphthyridine], the IC50 is > 3000 nM in the experiment with HeLa cells (Homo sapiens, HeLa, 96 h, read-out: Inhibition of HeLa cell proliferation, HeLa cells, 4 days incubation, crystal violet) and 852 nM in experiment [1] (setting [2]).

As for `O=S1(=O)CCCN1c1cc(N2CCOCC2)nc2c(-c3ccn[nH]3)nccc12` [Example 216, 4-(1,1-dioxido-1,2-thiazolidin-2-yl)-2-(morpholin-4-yl)-8-(1H-pyrazol-5-yl)-1,7-naphthyridine], the IC50 in the experiment with NCI-H460 cells amounted to 1020 nM; in the experiment on DU145 cells, 1330 nM; in experiment [1] (setting [2]), 84.4 nM.

`O=S1(=O)CCC12CN(c1cc(N3CCOCC3)nc3c(-c4ccn[nH]4)nccc13)C2` [Example 425, 4-(1,1-dioxido-1-thia-6-azaspiro[3.3]hept-6-yl)-2-(morpholin-4-yl)-8-(1H-pyrazol-5-yl)-1,7-naphthyridine]: the IC50 in experiment [1] (setting [2]) was found to be 1000 nM. As to `FC1CCCN(c2cc(N3CCOCC3)nc3c(-c4ccn[nH]4)nccc23)C1` (stereo not drawn) [Example 426, 4-(3-fluoropiperidin-1-yl)-2-(morpholin-4-yl)-8-(1H-pyrazol-5-yl)-1,7-naphthyridine], the IC50 in experiment [1] (setting [2]) worked out at 159 nM. Same read-out and setting: the value for `CN(c1ccccc1F)c1cc(N2CCOCC2)nc2c(-c3ccn[nH]3)nccc12` [Example 427, N-(2-fluorophenyl)-N-methyl-2-(morpholin-4-yl)-8-(1H-pyrazol-5-yl)-1,7-naphthyridin-4-amine] was 112 nM; that for `OCC1CCN(c2cc(N3CCOCC3)nc3c(-c4ccn[nH]4)nccc23)CC1` [Example 429, {1-[2-(morpholin-4-yl)-8-(1H-pyrazol-5-yl)-1,7-naphthyridin-4-yl]piperidin-4-yl}methanol] was 44.8 nM.

As for `COC1CCN(c2cc(N3CCOCC3)nc3c(-c4ccn[nH]4)nccc23)CC1` [Example 430, 4-(4-methoxypiperidin-1-yl)-2-(morpholin-4-yl)-8-(1H-pyrazol-5-yl)-1,7-naphthyridine], the IC50 in experiment [1] (setting [2]) turned out to be 61.3 nM.

For the compound `CN(c1ccc(F)cc1)c1cc(N2CCOCC2)nc2c(-c3ccn[nH]3)nccc12` [Example 431, N-(4-fluorophenyl)-N-methyl-2-(morpholin-4-yl)-8-(1H-pyrazol-5-yl)-1,7-naphthyridin-4-amine], in experiment [1] (setting [2]), the IC50 came to 34.7 nM. Same read-out and setting: the value for `CNC(=O)[C@@H]1CCCN1c1cc(N2CCOCC2)nc2c(-c3ccn[nH]3)nccc12` [Example 432, N-methyl-1-[2-(morpholin-4-yl)-8-(1H-pyrazol-5-yl)-1,7-naphthyridin-4-yl]-prolinamide] was 2040 nM.

With `CCS(=O)(=O)N1CCN(c2cc(N3CCOCC3)nc3c(-c4ccn[nH]4)nccc23)CC1` [Example 433, 4-[4-(ethylsulfonyl)piperazin-1-yl]-2-(morpholin-4-yl)-8-(1H-pyrazol-5-yl)-1,7-naphthyridine], the IC50 in experiment [1] (setting [2]) was found to be 41.6 nM. On the same count and under the same terms, with `CS(=O)(=O)N1CCN(c2cc(N3CCOCC3)nc3c(-c4ccn[nH]4)nccc23)CC1` [Example 434, 4-[4-(methylsulfonyl)piperazin-1-yl]-2-(morpholin-4-yl)-8-(1H-pyrazol-5-yl)-1,7-naphthyridine] the figure was 31.8 nM; with `CN(c1cc(N2CCOCC2)nc2c(-c3ccn[nH]3)nccc12)C1CC1` [Example 435, N-cyclopropyl-N-methyl-2-(morpholin-4-yl)-8-(1H-pyrazol-5-yl)-1,7-naphthyridin-4-amine], 65.1 nM; with `CN(CC(C)(C)C)c1cc(N2CCOCC2)nc2c(-c3ccn[nH]3)nccc12` [Example 436, N-(2,2-dimethylpropyl)-N-methyl-2-(morpholin-4-yl)-8-(1H-pyrazol-5-yl)-1,7-naphthyridin-4-amine], 24 nM.

These data come from patent US9549932B2, “2-(morpholin-4-yl)-1,7-naphthyridines” (BAYER PHARMA AKTIENGESELLSCHAFT, priority 2014, dated 2017).
